From patent US4640930A, “Naphtho(1,8-bc)-1,5-thiazocinones” (Hoffmann-La Roche Inc., priority 1986, dated 1987)
pIC50: −log10 of the molar value. Structures can show the parent of a compound that is named as a salt.

Tests used:
[1] = tested on: Guinea Pig Ileum; experiment: Guinea pig ileum assay: inhibition of tonic contraction (K+ challenge) of longitudinal muscle, calcium channel blocking; assay type: cell-based; conditions: Cavia porcellus; concentration inhibiting tonic contraction of muscle by 50%; 80 mM K+ challenge, 37° C., compound 2 minutes prior
Procedure: GUINEA PIG ILEUM ASSAY Male guinea-pigs weighing from 300-400 grams were stunned and bled. The abdomen was opened and 10-15 cm of terminal ileum was carefully removed and cleaned and placed in Tyrode's Solution of the following composition: NaCl (8 g/l), KCl (0.2 g/l), MgCl2 (0.1 g/l.), CaCl2 (0.2 g/l). NaH2 PO4 (0.05 g/l), NaHCO3 (1.0 g/l) and Glucose (1 g/l). The solution was maintained at 37° C. and gassed with 95%O2 and 5%CO2. Portions of the ileum were placed over a glass rod, a shallow incision was made the length of the mesenteric attachment just severing the outer-longitudinal muscle layer. The longitudinal muscle was separated from the underlying circular muscle by gentle dissection (Rang, H. P. Annals of New York Academy of Science, vol. 144, page 756, 1964). The tissue was fixed at one end to a tissue holder, the other end was connected by a thread to a force transducer and suspended in a muscle bath containing Tyrode's Solution maintained at 37° C. and gassed with 95%O2 and 5%CO2. An initial tension of 500 mg was applied and the tissue allowed to equilibrate for 60 minutes prior to the start of the study. During this period the tissue was washed every 16 minutes. Each preparation, at 16 minute intervals, was challenged with KCl sufficient to yield a bath K^+ concentration of 80 mMK for 2 minutes, then washed with fresh solution. The 16 minute interval between K^+ challenges was maintained throughout the study. Upon stabilization of the responses to the K^+ challenge the test compound (potential calcium entry antagonist) was introduced into the bath 2 minutes prior to and during the 2 minute exposure to K^+ after which the bath was cleared and washed with fresh solution. Logarithmically increasing doses (up to 10^-4 M) of the potential antagonist were administered as the study progressed. The measure of a compound's ability to inhibit the tonic contraction of muscle is a measure of its activity as a calcium channel blocking agent.

[2] = tested on: Spontaneously Hypertensive (SH) Rat; experiment: Blood pressure lowering in the spontaneously hypertensive (SH) rat; assay type: in vivo; conditions: oral, male SH rats
Procedure: BLOOD PRESSURE LOWERING IN THE SPONTANEOUSLY HYPERTENSIVE (SH) RAT
Six male SH rats were used for each test. Body weights were recorded. Six pre-drug control recordings of the systolic blood pressure (mmHg) were measured from the tails of the rats which were unanesthetized and restrained in holders. The rats were previously heated for 5-10 minutes at 32°-34° C. The systolic blood pressure was measured by an occlusion cuff.
The compounds were administered orally to the rats in a composition that included 5% compound and the remainder gum acacia. The blood pressure of the rats was measured over a period of hours following oral administration.
The measure of a compound's ability to decrease blood pressure, is a measure of its activity as an anti-hypertensive agent.

SMILES | pIC50 [1] | Systolic Blood Pressure in SH Rat Peak Decrease (Δ mm Hg) ([2]; unanesthetized, occlusion cuff on tail, peak decrease) | Duration of Effect on blood pressure ([2]; footnote a)
COc1ccc([C@@H]2Sc3cccc4cccc(c34)N(CCN(C)C)C(=O)[C@@H]2O)cc1 [OH HCl (+)-cis, (+)-cis-2,3-dihydro-5-[2-(dimethylamino)ethyl]-3-hydroxy-2-(4-methoxyphenyl)naphtho[1,8-bc]-1,5-thiazocin-4(5H)-one hydrochloride] | 5.51 | – | –
COc1ccc([C@@H]2Sc3cccc4cccc(c34)N(CCN(C)C)C(=O)[C@H]2OC(C)=O)cc1 (racemic) [OCOCH3 HCl (±)-trans, (±)-trans-3-(acetyloxy)-2,3-dihydro-5-[2-(dimethylamino)ethyl]-2-(4-methoxy-phenyl)-naphtho[1,8-bc]-1,5-thiazocin4(5H)-one hydrochloride] | 5.52 | – | –
COc1ccc([C@@H]2Sc3cccc4cccc(c34)N(CCN(C)C)C(=O)[C@@H]2O)cc1 (racemic) [OH HCl (±)-cis, (±)-cis-2,3-dihydro-5-[2-(dimethylamino)ethyl]-3-hydroxy-2-(4-methoxyphenyl)naphtho[1,8-bc]-1,5-thiazocin-4(5H)-one hydrochloride] | 5.38 | – | –
COc1ccc([C@@H]2Sc3cccc4cccc(c34)N(CCN(C)C)C(=O)[C@@H]2OC(C)=O)cc1 (relative stereo) [OCOCH3 HCl (±)-cis, (±)-cis-3-(acetyloxy)-2,3-dihydro-5-[2-dimethylamino)ethyl]-2-(4-methoxyphenyl)naphtho[1,8-bc]-1,5-thiazocin-4(5H)-one hydrochloride] | 5.41 | – | –
COc1ccc([C@@H]2Sc3cccc4cccc(c34)N(CCN(C)C)C(=O)[C@@H]2OC(C)=O)cc1.O=C(O)/C=C/C(=O)O [OCOCH3 fumarate (+)-cis, (+)-cis-3-(acetyloxy)-2,3-dihydro-5-[2-(dimethylamino)ethyl]-2-(4-methoxyphenyl)naphtho[1,8-bc]-1,5-thiazocin-4(5H)-one (E)-2-butenedioate] | 6.60 | -66 ± 12 mm Hg | 1 to 6 h
